Data taken from patent publication US8404708B2, “Dual NK1/NK3 receptor antagonists” (Hoffmann-La Roche Inc., priority 2004, dated 2013).

Experiments:
[1] = target: T1, Recombinant human NK3 (hNK3) receptor (Homo sapiens, UniProt P29371); assay: NK3 receptor binding, [3H]SR142801 displacement, membrane preparations; conditions: for Ki: read-out: pKi NK3 (converted)
T1 construct: expressed in transfected cells
T1 sequence (P29371 1-465): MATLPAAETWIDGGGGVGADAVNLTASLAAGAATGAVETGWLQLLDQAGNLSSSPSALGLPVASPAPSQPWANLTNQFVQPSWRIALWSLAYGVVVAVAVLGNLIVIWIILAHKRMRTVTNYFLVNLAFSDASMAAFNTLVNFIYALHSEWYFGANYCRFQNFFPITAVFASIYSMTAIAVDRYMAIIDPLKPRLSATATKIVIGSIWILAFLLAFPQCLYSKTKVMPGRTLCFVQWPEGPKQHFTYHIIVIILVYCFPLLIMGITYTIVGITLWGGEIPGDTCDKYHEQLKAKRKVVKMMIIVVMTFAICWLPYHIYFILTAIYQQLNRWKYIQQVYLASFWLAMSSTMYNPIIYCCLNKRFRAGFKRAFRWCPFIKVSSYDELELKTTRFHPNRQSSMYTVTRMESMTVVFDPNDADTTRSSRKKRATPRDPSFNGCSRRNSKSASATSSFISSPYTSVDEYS
Procedure, shortened: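 Incubation ran 90 min at room temperature in 50 mM Tris-HCl pH 7.4 with 0.1% BSA, 4 mM MnCl2 and 1 μM phosphoramidon, using about 2.5 μg hNK3 membrane protein per well. Nonspecific binding was defined with 10 μM SB222200, and bound radioactivity was collected on PEI-soaked GF/C filters for scintillation counting.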

human NK1 receptor = human NK1 receptor (Homo sapiens, UniProt P25103); assay: NK1 receptor binding, [3H]substance P displacement, CHO cell membranes; conditions: first value of the cell NK1/NK3; read-out: pKi NK1 (converted)
Chain of human NK1 receptor (P25103 whole entry): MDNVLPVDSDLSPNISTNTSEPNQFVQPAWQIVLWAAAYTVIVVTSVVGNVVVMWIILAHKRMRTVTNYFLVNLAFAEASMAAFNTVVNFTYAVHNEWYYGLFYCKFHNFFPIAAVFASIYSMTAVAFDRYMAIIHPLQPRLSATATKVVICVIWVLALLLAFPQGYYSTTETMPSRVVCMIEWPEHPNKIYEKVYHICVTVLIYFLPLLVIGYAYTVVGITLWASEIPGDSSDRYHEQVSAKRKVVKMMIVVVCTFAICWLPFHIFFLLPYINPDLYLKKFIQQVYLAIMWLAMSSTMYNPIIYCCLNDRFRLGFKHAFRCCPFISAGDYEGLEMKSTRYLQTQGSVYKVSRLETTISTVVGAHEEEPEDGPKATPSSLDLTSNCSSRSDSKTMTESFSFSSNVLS

[2] = phase II trial, cited from earlier work
[3] = second value of the cell NK1/NK3

Compound | Ki [1, 3] | Ki (human NK1 receptor) | also measured
CN(C(=O)C(C)(C)c1cc(C(F)(F)F)cc(C(F)(F)F)c1)c1cnc(NCCO)cc1-c1ccccc1Cl [Example 67, 2-(3,5-Bis-trifluoromethyl-phenyl)-N-[4-(2-chloro-phenyl)-6-(2-hydroxy-ethylamino)-pyridin-3-yl]-N-methyl-isobutyramide] |  |  | pKi NK3 ([1]; second value of the cell pKi NK1/NK3, hNK3 receptor, [3H]SR142801): 7.94; melting point: 117 to 118 °C
CN(C(=O)C(C)(C)c1cc(C(F)(F)F)cc(C(F)(F)F)c1)c1cnc(N2CCC[C@H]2CO)cc1-c1cccc(Cl)c1Cl [Example 285, (S)-2-(3,5-Bis-trifluoromethyl-phenyl)-N-[4-(2,3-dichloro-phenyl)-6-(2-hydroxymethyl-pyrrolidin-1-yl)-pyridin-3-yl]-N-methyl-isobutyramide] | 1.86 nM | 1.58 nM | 
CN(C(=O)C(C)(C)c1cc(C(F)(F)F)cc(C(F)(F)F)c1)c1cnc(N2CCC[C@H]2CO)cc1-c1ccc(Cl)c(Cl)c1 [Example 286, (S)-2-(3,5-Bis-trifluoromethyl-phenyl)-N-[4-(3,4-dichloro-phenyl)-6-(2-hydroxymethyl-pyrrolidin-1-yl)-pyridin-3-yl]-N-methyl-isobutyramide] | 3.72 nM | 1.35 nM | 
CN(C(=O)C(C)(C)c1cc(C(F)(F)F)cc(C(F)(F)F)c1)c1cnc(N2CCC[C@H]2CO)cc1-c1ccc(Cl)cc1 [Example 287, (S)-2-(3,5-Bis-trifluoromethyl-phenyl)-N-[4-(4-chloro-phenyl)-6-(2-hydroxymethyl-pyrrolidin-1-yl)-pyridin-3-yl]-N-methyl-isobutyramide] | 7.41 nM | 6.31 nM | 
CN(C(=O)C(C)(C)c1cc(C(F)(F)F)cc(C(F)(F)F)c1)c1cnc(N2CCC[C@H]2CO)cc1-c1ccc(F)cc1 [Example 288, (S)-2-(3,5-Bis-trifluoromethyl-phenyl)-N-[4-(4-fluoro-phenyl)-6-(2-hydroxymethyl-pyrrolidin-1-yl)-pyridin-3-yl]-N-methyl-isobutyramide] | 2.51 nM | 2.63 nM | 
Cc1ncccc1-c1cc(N2CCC[C@H]2CO)ncc1N(C)C(=O)C(C)(C)c1cc(C(F)(F)F)cc(C(F)(F)F)c1 [Example 290, (S)-2-(3,5-Bis-trifluoromethyl-phenyl)-N-[6′-(2-hydroxymethyl-pyrrolidin-1-yl)-2-methyl-[3,4′]bipyridinyl-3′-yl]-N-methyl-isobutyramide] | 1.78 nM | 1.45 nM | 
Cc1ncccc1-c1cc(N(CCO)CCO)ncc1N(C)C(=O)C(C)(C)c1cc(C(F)(F)F)cc(C(F)(F)F)c1 [Example 291, N-{6′-[Bis-(2-hydroxy-ethyl)-amino]-2-methyl-[3,4′]bipyridinyl-3′-yl}-2-(3,5-bis-trifluoromethyl-phenyl)-N-methyl-isobutyramide] | 7.76 nM | 3.31 nM | 
Cc1ccncc1-c1cc(N2CCC[C@H]2CO)ncc1N(C)C(=O)C(C)(C)c1cc(C(F)(F)F)cc(C(F)(F)F)c1 [Example 292, (S)-2-(3,5-Bis-trifluoromethyl-phenyl)-N-[6′-(2-hydroxymethyl-pyrrolidin-1-yl)-4-methyl-[3,4′]bipyridinyl-3′-yl]-N-methyl-isobutyramide] | 0.776 nM | 3.63 nM | 
Cc1ccncc1-c1cc(N(CCO)CCO)ncc1N(C)C(=O)C(C)(C)c1cc(C(F)(F)F)cc(C(F)(F)F)c1 [Example 293, N-{6′-[Bis-(2-hydroxy-ethyl)-amino]-4-methyl-[3,4′]bipyridinyl-3′-yl}-2-(3,5-bis-trifluoromethyl-phenyl)-N-methyl-isobutyramide] | 1.62 nM | 3.8 nM | 
Cc1ccccc1-c1cc(N2C[C@@H](F)C[C@H]2CO)ncc1N(C)C(=O)C(C)(C)c1cc(C(F)(F)F)cc(C(F)(F)F)c1 [Example 297, (2S,4S)-2-(3,5-Bis-trifluoromethyl-phenyl)-N-[6-(4-fluoro-2-hydroxymethyl-pyrrolidin-1-yl)-4-o-tolyl-pyridin-3-yl]-N-methyl-isobutyramide] | 1.32 nM | 2.88 nM | 
Cc1cc(F)ccc1-c1cc(N2C[C@@H](F)C[C@H]2CO)ncc1N(C)C(=O)C(C)(C)c1cc(C(F)(F)F)cc(C(F)(F)F)c1 [Example 298, (2S,4S)-2-(3,5-Bis-trifluoromethyl-phenyl)-N-[6-(4-fluoro-2-hydroxymethyl-pyrrolidin-1-yl)-4-(4-fluoro-2-methyl-phenyl)-pyridin-3-yl]-N-methyl-isobutyramide] |  | 1.55 nM | pKi NK3 [1, 3]: 9.15
Cc1ccccc1-c1cc(N2CC(F)(F)C[C@H]2CO)ncc1N(C)C(=O)C(C)(C)c1cc(C(F)(F)F)cc(C(F)(F)F)c1 [Example 299, (S)-2-(3,5-Bis-trifluoromethyl-phenyl)-N-[6-(4,4-difluoro-2-hydroxymethyl-pyrrolidin-1-yl)-4-o-tolyl-pyridin-3-yl]-N-methyl-isobutyramide] | 1.07 nM | 2.57 nM | 
Cc1cc(F)ccc1-c1cc(N2CC(F)(F)C[C@H]2CO)ncc1N(C)C(=O)C(C)(C)c1cc(C(F)(F)F)cc(C(F)(F)F)c1 [Example 300, (S)-2-(3,5-Bis-trifluoromethyl-phenyl)-N-[6-(4,4-difluoro-2-hydroxymethyl-pyrrolidin-1-yl)-4-(4-fluoro-2-methyl-phenyl)-pyridin-3-yl]-N-methyl-isobutyramide] | 0.49 nM | 0.955 nM | 
Cc1cc(F)ccc1-c1cc(N2CCC[C@H]2COC(=O)N(C)C)ncc1N(C)C(=O)C(C)(C)c1cc(C(F)(F)F)cc(C(F)(F)F)c1 [Example 303, (S)-Dimethyl-carbamic Acid 1-[5-{[2-(3,5-bis-trifluoromethyl-phenyl)-2-methyl-propionyl]-methyl-amino}-4-(4-fluoro-2-methyl-phenyl)-pyridin-2-yl]-pyrrolidin-2-ylmethyl Ester] | 15.1 nM | 1.32 nM | 
CC(=O)N(C)C1(c2ccccc2)CCN(CCC[C@]2(c3ccc(Cl)c(Cl)c3)CCCN(C(=O)c3ccccc3)C2)CC1 [SR 142,801, Osanetant] |  |  | activity on positive symptoms of schizophrenia ([2]; altered behavior, delusion, hallucinations, extreme emotions, excited motor activity, incoherent speech): active; activity in the treatment of negative symptoms of schizophrenia ([2]; depression, anhedonia, social isolation, memory and attention deficits): inactive

Continued, in another order:

Ki [1, 3] | Ki (human NK1 receptor) | Compound | also measured
5.01 nM | 3.02 nM | CN(C(=O)C(C)(C)c1cc(C(F)(F)F)cc(C(F)(F)F)c1)c1cnc(N2CCC[C@H]2CO)cc1-c1ccccc1 [Example 289, (S)-2-(3,5-Bis-trifluoromethyl-phenyl)-N-[6-(2-hydroxymethyl-pyrrolidin-1-yl)-4-phenyl-pyridin-3-yl]-N-methyl-isobutyramide] | 
4.27 nM | 5.13 nM | Cc1ccncc1-c1cc(N(C)CCO)ncc1N(C)C(=O)C(C)(C)c1cc(C(F)(F)F)cc(C(F)(F)F)c1 [Example 294, 2-(3,5-Bis-trifluoromethyl-phenyl)-N-{6′-[(2-hydroxy-ethyl)-methyl-amino]-4-methyl-[3,4′]bipyridinyl-3′-yl}-N-methyl-isobutyramide] | 
1.66 nM | 1.55 nM | Cc1ccccc1-c1cc(N2CC(=O)C[C@H]2CO)ncc1N(C)C(=O)C(C)(C)c1cc(C(F)(F)F)cc(C(F)(F)F)c1 [Example 295, (S)-2-(3,5-Bis-trifluoromethyl-phenyl)-N-[6-(2-hydroxymethyl-4-oxo-pyrrolidin-1-yl)-4-o-tolyl-pyridin-3-yl]-N-methyl-isobutyramide] | 
1.74 nM | 2.51 nM | Cc1cc(F)ccc1-c1cc(N2CC(=O)C[C@H]2CO)ncc1N(C)C(=O)C(C)(C)c1cc(C(F)(F)F)cc(C(F)(F)F)c1 [Example 296, (S)-2-(3,5-Bis-trifluoromethyl-phenyl)-N-[4-(4-fluoro-2-methyl-phenyl)-6-(2-hydroxymethyl-4-oxo-pyrrolidin-1-yl)-pyridin-3-yl]-N-methyl-isobutyramide] | 
2.29 nM | 2.14 nM | Cc1ccccc1-c1cc(N2C[C@H](F)C[C@H]2CO)ncc1N(C)C(=O)C(C)(C)c1cc(C(F)(F)F)cc(C(F)(F)F)c1 [Example 301, (2S,4R)-2-(3,5-Bis-trifluoromethyl-phenyl)-N-[6-(4-fluoro-2-hydroxymethyl-pyrrolidin-1-yl)-4-o-tolyl-pyridin-3-yl]-N-methyl-isobutyramide] | 
20.4 nM | 2.51 nM | CC(=O)NC[C@@H]1CCCN1c1cc(-c2ccc(F)cc2C)c(N(C)C(=O)C(C)(C)c2cc(C(F)(F)F)cc(C(F)(F)F)c2)cn1 [Example 302, (S)-N-[6-[2-(Acetylamino-methyl)-pyrrolidin-1-yl]-4-(4-fluoro-2-methyl-phenyl)-pyridin-3-yl]-2-(3,5-bis-trifluoromethyl-phenyl)-N-methyl-isobutyramide] | 
